# Measurements taken from article PMC11606603, “The membrane domains of mammalian adenylyl cyclases are lipid receptors” (eLife, 2024).
# Several values for one entry are separate records, joined by “and”; a condition that tells them apart may be missing. Equal values may be shown once. Entries after “also recorded” stand apart in the source; their conditions may differ.
# What was measured:
# Format in all cases: biochemical
# mAC1 = target: T1, mAC1 (Homo sapiens, UniProt Q08828); test: AC assay, Gsα-stimulated mAC1 in membranes from transfected HEK293 cells; settings: 20 µM fatty acid; 300 nM Gsα; single experiments
# T1 construct: Human mAC genes were from GenScript and fitted with a C-terminal FLAG-tag; FLAG (C); made in house; host or cells: HEK293, permanently transfected; membrane preparation
# Procedure, shortened: (§1)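 cAMP detected with a Cisbio kit, calibrated by a cAMP standard curve each run. Reaction: 1 mM ATP, 2 mM MgCl2, 3 mM creatine phosphate, 60 μg/ml creatine kinase, 50 mM MOPS pH 7.5. Enzyme source: membranes of stably transfected HEK293 (G418-selected) carrying FLAG-tagged human AC.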
# mAC3 = target: T2, mAC3 (Homo sapiens, UniProt O60266); test: AC assay, Gsα-stimulated mAC3 in membranes from transfected HEK293 cells; settings: for mAC3 activity [%] (100% = 300nM Gsα stimulation): individual experiments
# T2 construct: Human mAC genes were from GenScript and fitted with a C-terminal FLAG-tag; FLAG (C); made in house; host or cells: HEK293, permanently transfected; membrane preparation
# Procedure, shortened: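 cAMP formation was quantified by HTRF against a cAMP standard curve, with EC50 or IC50 derived by curve fitting. Reactions contained 1 mM ATP, 2 mM MgCl2, 3 mM creatine phosphate, 60 μg/ml creatine kinase and 50 mM MOPS pH 7.5, using membranes of stably transfected HEK293 cells carrying FLAG-tagged human AC.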
# mAC4 = target: T3, mAC4 (Homo sapiens, UniProt Q8NFM4); test: AC assay, Gsα-stimulated mAC4 in membranes from transfected HEK293 cells; settings: 20 µM fatty acid; 300 nM Gsα; single experiments
# T3 construct: Human mAC genes were from GenScript and fitted with a C-terminal FLAG-tag; FLAG (C); made in house; host or cells: HEK293, permanently transfected; membrane preparation
# T3 sequence (Q8NFM4 1-1077): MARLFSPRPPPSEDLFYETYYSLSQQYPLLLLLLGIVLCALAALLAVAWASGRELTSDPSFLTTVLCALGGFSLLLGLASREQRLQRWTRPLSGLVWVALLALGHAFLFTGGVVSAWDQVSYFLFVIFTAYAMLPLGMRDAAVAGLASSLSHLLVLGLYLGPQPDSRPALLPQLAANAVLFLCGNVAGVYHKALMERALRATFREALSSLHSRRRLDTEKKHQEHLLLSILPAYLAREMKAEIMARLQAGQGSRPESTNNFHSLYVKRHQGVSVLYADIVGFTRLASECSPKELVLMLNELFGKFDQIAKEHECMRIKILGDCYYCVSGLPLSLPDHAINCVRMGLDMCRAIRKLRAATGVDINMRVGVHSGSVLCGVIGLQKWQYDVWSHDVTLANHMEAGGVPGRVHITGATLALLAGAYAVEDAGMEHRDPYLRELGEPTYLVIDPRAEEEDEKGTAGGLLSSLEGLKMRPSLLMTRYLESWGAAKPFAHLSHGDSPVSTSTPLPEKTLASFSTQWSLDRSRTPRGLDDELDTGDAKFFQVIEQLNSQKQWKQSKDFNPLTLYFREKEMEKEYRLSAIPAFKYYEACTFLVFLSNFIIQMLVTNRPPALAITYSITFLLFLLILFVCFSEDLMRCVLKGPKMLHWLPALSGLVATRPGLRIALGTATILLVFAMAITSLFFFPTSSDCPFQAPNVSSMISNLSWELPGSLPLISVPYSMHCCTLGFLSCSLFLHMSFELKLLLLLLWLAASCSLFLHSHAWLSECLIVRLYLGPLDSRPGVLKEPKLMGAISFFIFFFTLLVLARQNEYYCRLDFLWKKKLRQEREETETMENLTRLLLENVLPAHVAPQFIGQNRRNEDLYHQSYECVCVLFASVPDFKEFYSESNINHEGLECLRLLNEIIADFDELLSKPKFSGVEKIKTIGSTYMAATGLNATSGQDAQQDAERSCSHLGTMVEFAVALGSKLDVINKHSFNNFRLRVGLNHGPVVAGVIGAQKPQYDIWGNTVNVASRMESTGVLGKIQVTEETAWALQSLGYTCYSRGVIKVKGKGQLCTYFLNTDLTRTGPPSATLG
# Procedure, shortened: as §1
# mAC5 = target: T4, mAC5 (Homo sapiens, UniProt O95622); test: AC assay, Gsα-stimulated mAC5 in membranes from transfected HEK293 cells
# T4 construct: Human mAC genes were from GenScript and fitted with a C-terminal FLAG-tag; FLAG (C); made in house; host or cells: HEK293, permanently transfected; membrane preparation
# Procedure, shortened: as §1
# mAC8 = target: T5, mAC8 (Homo sapiens, UniProt P40145); test: AC assay, Gsα-stimulated mAC8 in membranes from transfected HEK293 cells; settings: 20µM fatty acid concentration
# T5 construct: Human mAC genes were from GenScript and fitted with a C-terminal FLAG-tag; FLAG (C); made in house; host or cells: HEK293, permanently transfected; membrane preparation
# Procedure, shortened: as §1
# T1 sequence (Q08828 whole entry): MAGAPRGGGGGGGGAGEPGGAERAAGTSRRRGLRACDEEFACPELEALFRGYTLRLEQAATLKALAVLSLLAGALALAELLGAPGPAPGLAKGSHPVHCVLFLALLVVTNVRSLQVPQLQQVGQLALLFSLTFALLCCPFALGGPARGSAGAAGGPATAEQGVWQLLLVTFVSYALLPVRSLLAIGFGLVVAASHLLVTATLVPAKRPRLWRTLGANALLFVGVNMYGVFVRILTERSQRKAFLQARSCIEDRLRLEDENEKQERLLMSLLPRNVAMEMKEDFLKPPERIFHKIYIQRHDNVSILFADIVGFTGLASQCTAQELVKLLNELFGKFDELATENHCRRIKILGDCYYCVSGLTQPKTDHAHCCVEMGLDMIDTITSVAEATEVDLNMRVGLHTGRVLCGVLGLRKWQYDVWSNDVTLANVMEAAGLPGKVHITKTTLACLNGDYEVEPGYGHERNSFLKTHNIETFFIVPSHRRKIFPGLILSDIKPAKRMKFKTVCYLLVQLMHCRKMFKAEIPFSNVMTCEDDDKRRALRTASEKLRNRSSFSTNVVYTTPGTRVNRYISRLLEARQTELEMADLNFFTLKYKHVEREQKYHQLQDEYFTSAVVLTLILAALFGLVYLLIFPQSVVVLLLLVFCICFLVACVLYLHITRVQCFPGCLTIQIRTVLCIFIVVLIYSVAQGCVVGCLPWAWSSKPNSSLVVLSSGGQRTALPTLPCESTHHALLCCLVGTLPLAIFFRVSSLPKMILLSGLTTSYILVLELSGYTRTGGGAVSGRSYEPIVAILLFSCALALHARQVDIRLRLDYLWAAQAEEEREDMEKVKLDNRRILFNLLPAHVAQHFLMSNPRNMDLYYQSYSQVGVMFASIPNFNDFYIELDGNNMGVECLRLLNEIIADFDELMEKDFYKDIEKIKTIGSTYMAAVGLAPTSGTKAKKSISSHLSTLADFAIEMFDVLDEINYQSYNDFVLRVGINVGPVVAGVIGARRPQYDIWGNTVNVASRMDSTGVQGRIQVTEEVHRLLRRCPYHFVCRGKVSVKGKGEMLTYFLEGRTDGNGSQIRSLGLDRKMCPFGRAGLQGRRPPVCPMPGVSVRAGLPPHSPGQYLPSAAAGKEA
# T4 sequence (O95622 whole entry): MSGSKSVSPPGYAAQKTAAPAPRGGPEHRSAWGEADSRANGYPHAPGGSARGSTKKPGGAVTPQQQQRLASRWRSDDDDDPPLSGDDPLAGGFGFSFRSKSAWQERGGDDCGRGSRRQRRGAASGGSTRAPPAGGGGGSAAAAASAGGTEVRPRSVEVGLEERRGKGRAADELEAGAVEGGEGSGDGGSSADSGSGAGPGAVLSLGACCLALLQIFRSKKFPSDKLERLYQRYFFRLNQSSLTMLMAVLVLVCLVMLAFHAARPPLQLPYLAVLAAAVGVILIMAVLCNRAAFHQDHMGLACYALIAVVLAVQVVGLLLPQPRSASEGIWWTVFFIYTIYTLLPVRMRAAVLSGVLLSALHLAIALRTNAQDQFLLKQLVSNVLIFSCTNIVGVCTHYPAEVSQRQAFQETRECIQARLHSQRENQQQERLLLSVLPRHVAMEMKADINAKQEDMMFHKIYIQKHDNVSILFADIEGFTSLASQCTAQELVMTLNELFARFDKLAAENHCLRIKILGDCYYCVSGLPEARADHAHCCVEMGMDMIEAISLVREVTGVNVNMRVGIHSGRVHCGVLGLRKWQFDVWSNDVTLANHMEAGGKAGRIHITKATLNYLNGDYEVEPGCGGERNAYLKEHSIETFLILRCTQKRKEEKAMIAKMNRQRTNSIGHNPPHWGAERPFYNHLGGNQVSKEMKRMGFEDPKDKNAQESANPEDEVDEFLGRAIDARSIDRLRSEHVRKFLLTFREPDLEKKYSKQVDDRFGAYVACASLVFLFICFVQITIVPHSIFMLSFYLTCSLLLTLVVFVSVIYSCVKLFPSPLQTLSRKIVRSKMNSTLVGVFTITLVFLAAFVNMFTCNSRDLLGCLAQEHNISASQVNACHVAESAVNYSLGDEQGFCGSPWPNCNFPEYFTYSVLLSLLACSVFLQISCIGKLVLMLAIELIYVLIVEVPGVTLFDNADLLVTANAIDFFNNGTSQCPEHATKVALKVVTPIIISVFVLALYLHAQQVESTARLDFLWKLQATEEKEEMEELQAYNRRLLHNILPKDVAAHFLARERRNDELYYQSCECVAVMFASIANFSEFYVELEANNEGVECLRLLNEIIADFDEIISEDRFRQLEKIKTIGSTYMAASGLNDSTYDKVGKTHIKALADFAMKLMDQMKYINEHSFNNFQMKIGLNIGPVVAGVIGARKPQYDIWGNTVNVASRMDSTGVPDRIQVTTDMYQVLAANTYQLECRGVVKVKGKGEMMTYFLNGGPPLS
# T2 sequence (O60266 whole entry): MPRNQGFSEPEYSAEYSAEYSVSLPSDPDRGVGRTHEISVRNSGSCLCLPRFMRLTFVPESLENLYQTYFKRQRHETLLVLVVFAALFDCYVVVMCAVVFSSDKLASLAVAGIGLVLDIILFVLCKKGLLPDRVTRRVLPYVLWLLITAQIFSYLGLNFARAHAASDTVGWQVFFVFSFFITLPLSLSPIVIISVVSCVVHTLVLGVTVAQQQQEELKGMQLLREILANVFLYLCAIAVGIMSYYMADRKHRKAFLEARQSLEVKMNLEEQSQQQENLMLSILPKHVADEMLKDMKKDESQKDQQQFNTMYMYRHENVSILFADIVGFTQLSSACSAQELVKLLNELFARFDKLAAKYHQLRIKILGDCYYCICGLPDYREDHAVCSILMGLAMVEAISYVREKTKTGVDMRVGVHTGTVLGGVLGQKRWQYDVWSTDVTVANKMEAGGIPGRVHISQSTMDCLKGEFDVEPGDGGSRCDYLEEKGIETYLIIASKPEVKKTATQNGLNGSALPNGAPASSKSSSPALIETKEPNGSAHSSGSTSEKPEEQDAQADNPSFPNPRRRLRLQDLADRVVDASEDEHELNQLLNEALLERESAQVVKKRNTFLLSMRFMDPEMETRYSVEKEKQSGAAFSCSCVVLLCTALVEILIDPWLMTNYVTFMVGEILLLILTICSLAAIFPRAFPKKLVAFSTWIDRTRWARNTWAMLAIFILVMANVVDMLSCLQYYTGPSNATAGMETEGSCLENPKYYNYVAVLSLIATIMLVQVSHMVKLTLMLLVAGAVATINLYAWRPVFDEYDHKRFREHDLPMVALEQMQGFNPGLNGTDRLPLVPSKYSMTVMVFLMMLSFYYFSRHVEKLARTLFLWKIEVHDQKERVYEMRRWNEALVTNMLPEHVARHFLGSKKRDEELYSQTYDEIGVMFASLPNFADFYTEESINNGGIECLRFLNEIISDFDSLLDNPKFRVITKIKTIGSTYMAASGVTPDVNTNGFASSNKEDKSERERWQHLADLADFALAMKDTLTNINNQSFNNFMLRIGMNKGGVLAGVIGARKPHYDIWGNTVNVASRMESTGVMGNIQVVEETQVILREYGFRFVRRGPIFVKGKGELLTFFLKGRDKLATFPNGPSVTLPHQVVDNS
# T2 sequence (P63092 whole entry Q227L partner): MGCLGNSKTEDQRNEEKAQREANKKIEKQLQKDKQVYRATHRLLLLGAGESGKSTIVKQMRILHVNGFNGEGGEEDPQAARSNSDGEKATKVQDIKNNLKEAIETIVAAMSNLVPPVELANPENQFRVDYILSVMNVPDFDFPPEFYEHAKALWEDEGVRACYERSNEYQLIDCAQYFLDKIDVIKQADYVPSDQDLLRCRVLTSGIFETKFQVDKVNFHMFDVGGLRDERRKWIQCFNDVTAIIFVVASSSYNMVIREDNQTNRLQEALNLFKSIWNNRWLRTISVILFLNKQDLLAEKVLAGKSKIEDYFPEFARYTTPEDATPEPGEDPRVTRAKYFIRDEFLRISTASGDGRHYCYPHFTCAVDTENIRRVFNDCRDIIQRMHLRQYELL
smiles,measurement,setting,value
"CCCCCCCCCCCCCCCCCC(=O)O [Stearic acid, Stearic (octadecanoic) acid]",mAC1 activity [%] (100% = 300nM Gsα stimulation); 20µM fatty acid concentration,mAC1,126% and 77% and 95%
same,Effect of lipid on 300 nM Gsα-stimulated mAC3,"mAC3; 20 µM, in words",no significant effect; also recorded: inactive
same,mAC3 activity [%] (100% = 300nM Gsα stimulation),mAC3; fatty acid 0.5 µM,100%
same,mAC3 activity [%] (100% = 300nM Gsα stimulation),mAC3; fatty acid 1 µM,121% and 48% and 49% and 110% and 79%
same,mAC3 activity [%] (100% = 300nM Gsα stimulation),mAC3; fatty acid 3 µM,84% and 77% and 52% and 121% and 116%
same,mAC3 activity [%] (100% = 300nM Gsα stimulation),mAC3; fatty acid 6 µM,91% and 103% (2×) and 32% and 75%
same,mAC3 activity [%] (100% = 300nM Gsα stimulation),mAC3; fatty acid 10 µM,69% and 84% and 76% and 71% and 80% and 79%
same,mAC3 activity [%] (100% = 300nM Gsα stimulation),mAC3; fatty acid 20 µM,115% and 83% and 68% and 70% and 65% and 160%
same,mAC4 activity [%] (100% = 300nM Gsα stimulation); 20µM fatty acid concentration,mAC4,79% and 60% and 83%
same,mAC5 activity [%] (100% = 300nM Gsα stimulation),mAC5; 20µM fatty acid concentration,73% and 93% and 77%
same,mAC5 activity [%] (100% = 300nM Gsα stimulation),"mAC5; fatty acid 0.5 µM, individual experiments",100%
same,mAC5 activity [%] (100% = 300nM Gsα stimulation),"mAC5; fatty acid 1 µM, individual experiments",134% and 72%
same,mAC5 activity [%] (100% = 300nM Gsα stimulation),"mAC5; fatty acid 3 µM, individual experiments",73% and 80% and 162%
same,mAC5 activity [%] (100% = 300nM Gsα stimulation),"mAC5; fatty acid 6 µM, individual experiments",124% and 75% and 108% and 125%
same,mAC5 activity [%] (100% = 300nM Gsα stimulation),"mAC5; fatty acid 10 µM, individual experiments",73% and 93% and 77%
same,mAC5 activity [%] (100% = 300nM Gsα stimulation),"mAC5; fatty acid 20 µM, individual experiments",80% and 91% and 83%
same,mAC8 activity [%] (100% = 300nM Gsα stimulation),mAC8,107% and 102%
